Measurements from paper PMC9002841, “Characterization of Promising Cytotoxic Metabolites from Tabebuia guayacan Hemsl.: Computational Prediction and In Vitro Testing” (Plants, 2022).
Blank lines part the entries; values can stand above or below the compound they belong to.

Legend:
CDK2/CyclinA2 = target: T1, CDK2/CyclinA2 (Homo sapiens, UniProt P24941); test: In vitro CDK-2 inhibitory activity (Kinase-Glo MAX kinase assay); assay type: biochemical; details: mean ± SD
T1 construct: purchased #79599
From the text: (§1) The Assay Kits are designed to measure CDK2/CyclinA2 and VEGFR-2 (KDR) activities for screening and profiling applications, using Kinase-Glo® MAX as a detection reagent. The CDK-2 Assay Kit comes in a convenient 96-well format, with enough purified recombinant CDK2/CyclinA2 enzyme, CDK substrate peptide, ATP, and kinase assay buffer for 100 enzyme reactions, while the VEGFR-2 Assay Kit comes in a convenient 96-well format, with enough purified recombinant VEGFR-2 (KDR) enzyme, PTK substrate, ATP, and kinase assay buffer for 100 enzyme reactions. […] The CDK2/CyclinA2 and VEGFR-2 (KDR) activities at a single dose concentration of 10µM were performed, where the Kinase-Glo MAX luminescence kinase assay kit (Promega#V6071) was used. The compounds were diluted in 10% DMSO and 5 µL of the dilution was added to a 50 µL reaction so that the final concentration of DMSO was 1% in all of the reactions. All of the enzymatic reactions were conducted at 30 °C for 45 min. […] After the enzymatic reactions, 50 µL of Kinase-Glo® MAX Luminescence kinase assay solution was added to each reaction and the plates were incubated for 15 min at room temperature. Luminescence signal was measured using a Bio Tek Synergy 2 microplate reader.
(§2) Data were analyzed using one-way analysis of variance (ANOVA) for multiple comparison between all compounds followed by Tukey–Kramer post-ANOVA test. […]

CDK6/Cyclin D3 = target: T2, CDK6/Cyclin D3 (Homo sapiens, UniProt Q00534); test: In vitro CDK-6 inhibitory activity (ADP-Glo kinase assay); assay type: biochemical; details: mean ± SD
T2 construct: purchased Promega V4489
Description: Data were analyzed using one-way analysis of variance (ANOVA) for multiple comparison between all compounds followed by Tukey–Kramer post-ANOVA test. The differences were considered statistically significant at p < 0.05.

VEGFR-2 (KDR) = target: T3, VEGFR-2 (KDR) (Homo sapiens, UniProt P35968); test: In vitro VEGFR-2 inhibitory activity (Kinase-Glo MAX kinase assay); assay type: biochemical; details: mean ± SD
T3 construct: purchased #40325
From the text: as §1, §2

topoisomerase-1 = details: cited from earlier work

T2 sequence (Q00534 whole entry): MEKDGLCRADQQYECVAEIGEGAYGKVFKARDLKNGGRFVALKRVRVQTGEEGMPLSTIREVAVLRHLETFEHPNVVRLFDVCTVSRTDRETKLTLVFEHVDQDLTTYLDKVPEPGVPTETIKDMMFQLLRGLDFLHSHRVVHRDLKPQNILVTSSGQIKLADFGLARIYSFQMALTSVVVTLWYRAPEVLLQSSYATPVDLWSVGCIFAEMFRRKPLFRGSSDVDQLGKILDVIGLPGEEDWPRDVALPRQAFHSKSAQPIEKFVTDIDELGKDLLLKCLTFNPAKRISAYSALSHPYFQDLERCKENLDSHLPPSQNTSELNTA
T2 sequence (P30281 whole entry partner): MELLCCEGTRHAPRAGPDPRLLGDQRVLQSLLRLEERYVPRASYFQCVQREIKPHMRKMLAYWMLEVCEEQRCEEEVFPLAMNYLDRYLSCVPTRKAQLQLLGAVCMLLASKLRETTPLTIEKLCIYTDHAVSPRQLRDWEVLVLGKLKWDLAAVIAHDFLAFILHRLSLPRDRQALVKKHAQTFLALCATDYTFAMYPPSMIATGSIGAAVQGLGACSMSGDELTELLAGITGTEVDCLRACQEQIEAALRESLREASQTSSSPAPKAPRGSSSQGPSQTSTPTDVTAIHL
T3 sequence (P35968 20-1356): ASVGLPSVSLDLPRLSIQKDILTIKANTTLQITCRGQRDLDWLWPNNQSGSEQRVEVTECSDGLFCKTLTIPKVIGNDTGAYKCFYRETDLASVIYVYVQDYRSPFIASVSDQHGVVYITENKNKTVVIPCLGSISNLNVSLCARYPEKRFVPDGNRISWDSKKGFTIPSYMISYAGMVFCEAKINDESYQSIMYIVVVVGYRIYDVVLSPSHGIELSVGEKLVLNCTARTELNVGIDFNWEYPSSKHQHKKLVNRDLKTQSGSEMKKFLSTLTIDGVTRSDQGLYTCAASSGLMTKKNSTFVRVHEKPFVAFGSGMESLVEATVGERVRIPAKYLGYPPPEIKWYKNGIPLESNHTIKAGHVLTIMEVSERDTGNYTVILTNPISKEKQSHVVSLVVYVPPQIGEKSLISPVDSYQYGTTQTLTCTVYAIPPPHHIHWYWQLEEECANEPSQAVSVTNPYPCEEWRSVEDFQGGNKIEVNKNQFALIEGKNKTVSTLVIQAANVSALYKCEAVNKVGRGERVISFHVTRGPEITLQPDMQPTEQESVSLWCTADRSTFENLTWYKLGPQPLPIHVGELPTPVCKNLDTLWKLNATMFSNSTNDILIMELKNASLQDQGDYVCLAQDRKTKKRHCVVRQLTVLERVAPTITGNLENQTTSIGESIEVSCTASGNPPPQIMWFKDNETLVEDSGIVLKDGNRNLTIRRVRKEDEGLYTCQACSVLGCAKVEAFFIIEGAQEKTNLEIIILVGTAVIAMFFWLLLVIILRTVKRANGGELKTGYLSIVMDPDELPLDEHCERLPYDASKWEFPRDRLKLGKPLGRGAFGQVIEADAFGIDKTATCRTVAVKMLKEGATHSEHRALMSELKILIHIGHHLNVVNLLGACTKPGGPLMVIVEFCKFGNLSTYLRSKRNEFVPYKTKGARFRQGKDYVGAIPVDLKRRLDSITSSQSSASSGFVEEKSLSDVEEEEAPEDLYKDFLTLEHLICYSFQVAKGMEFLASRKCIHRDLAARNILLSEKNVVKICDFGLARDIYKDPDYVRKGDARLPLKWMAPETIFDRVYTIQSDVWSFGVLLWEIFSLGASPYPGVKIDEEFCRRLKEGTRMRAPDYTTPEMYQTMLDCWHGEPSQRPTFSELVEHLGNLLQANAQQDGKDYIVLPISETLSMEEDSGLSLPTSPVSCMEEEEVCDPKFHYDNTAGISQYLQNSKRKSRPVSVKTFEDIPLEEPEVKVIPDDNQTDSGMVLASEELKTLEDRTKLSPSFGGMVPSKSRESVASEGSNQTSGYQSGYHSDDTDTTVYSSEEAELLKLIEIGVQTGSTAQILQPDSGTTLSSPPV

SMILES: CC[C@H](CC[C@@H](C)[C@H]1CC[C@H]2[C@@H]3CC=C4C[C@@H](O)CC[C@]4(C)[C@H]3CC[C@]12C)C(C)C [Compound 1, β-sitosterol]
- IC50 (CDK2/CyclinA2): 581 nM

- IC50 (CDK2/CyclinA2): 239 nM
SMILES: C[C@H]1[C@H](C)CC[C@]2(C(=O)O)CC[C@]3(C)C(=CC[C@@H]4[C@@]5(C)C[C@@H](O)[C@H](O)C(C)(C)[C@@H]5CC[C@]43C)[C@H]12 [Compound 3, corosolic acid]

- IC50 (CDK6/Cyclin D3): 355 nM
- IC50 (VEGFR-2 (KDR)): 193 nM
SMILES: O=c1c(OC2OCC(O)C(O)C2O)c(-c2ccc(O)c(O)c2)oc2cc(O)cc(O)c12 (stereo not drawn) [Compound 10, quercetin 3-O-β-xyloside]

SMILES: O=c1cc(-c2ccc(O)c(O)c2)oc2cc(OC3O[C@@H](CO)[C@H](O)[C@@H](O)[C@@H]3O)cc(O)c12 (stereo partly drawn) [Compound 16, luteolin-7-O-β-glucoside]
- inhibitory activity against topoisomerase-1 (topoisomerase-1): especially poisonous
